Tests used:
[1] = test system: SK-BR-3; test: IC50 and LC50 of ATA at 48 h; assay type: cell-based; conditions: Homo sapiens, SK-BR-3 breast cancer
[2] = test system: MDA-MB-435; test: IC50 and LC50 of ATA at 48 h; assay type: cell-based; conditions: Homo sapiens, MDA-MB-435 melanoma
[3] = test system: HeLa; test: IC50 and LC50 of ATA at 48 h; assay type: cell-based; conditions: Homo sapiens, HeLa cervical cancer
[4] = test system: SiHa; test: IC50 and LC50 of ATA at 48 h; assay type: cell-based; conditions: Homo sapiens, SiHa cervical cancer
[5] = test system: T47D; test: Growth inhibition at 72 h by MTT assay; assay type: cell-based; conditions: T47D (ER+)
[6] = test system: MCF-7/HER2 cells; test: Growth inhibition of HER2 over-expressing cells at 72 h; assay type: cell-based
Source text: The efficacy of ATA on MCF-7 cells with over-expressed HER2 protein was investigated.

[7] = test system: xenografted tumors derived from human melanoma MDA-MB-435 cells; test: Xenografted tumors in nude mice; assay type: in vivo; conditions: 30 mg/kg, 3×/week intraperitoneal, four weeks
Description: ATA (▴ 30 mg/kg), etoposide (▪ ETS, 20 mg/kg) and vehicle control (◯) were injected into mice 3×/week via intraperitoneal injection. Average tumor size (A) and mice body weight (B) were measured from five mice.
The anti-tumour effect of ATA was examined in nude mice (FIG. 13 and FIG. 14) carrying solid tumours generated by injecting human melanoma MDA-MB-435 cells into the mice subcutaneously. The tumour size and mouse body weight were monitored over a period of four weeks.

[8] = test system: ROS in MDA-MB-435 cells; test: ROS generation and its prevention by PG; assay type: cell-based, human; conditions: MDA-MB-435 cells
Description: (A) PG prevented ATA-induced cell death. Three concentrations of PG were tested for their protective effects on ATA-induced cell death. The cell viability was measured by SRB assay. (* p<0.01). (B) PG protected ROS generation caused by ATA treatment. […] All the experiments were performed at least three times. The results presented in this figure are the average of three experiments. Error bar represents standard deviation. Scale bar=20 μm.
It was further tested, whether PG could prevent ROS generation after ATA treatment.

[9] = biological target: T1, ERα in MCF-7 cells (Homo sapiens, UniProt P03372); test: ERα protein level by immunostaining and Western blot; assay type: cell-based
T1 construct: endogenous in cells; host or cells: MCF-7 human breast cancer cells
T1 sequence (P03372 1-595): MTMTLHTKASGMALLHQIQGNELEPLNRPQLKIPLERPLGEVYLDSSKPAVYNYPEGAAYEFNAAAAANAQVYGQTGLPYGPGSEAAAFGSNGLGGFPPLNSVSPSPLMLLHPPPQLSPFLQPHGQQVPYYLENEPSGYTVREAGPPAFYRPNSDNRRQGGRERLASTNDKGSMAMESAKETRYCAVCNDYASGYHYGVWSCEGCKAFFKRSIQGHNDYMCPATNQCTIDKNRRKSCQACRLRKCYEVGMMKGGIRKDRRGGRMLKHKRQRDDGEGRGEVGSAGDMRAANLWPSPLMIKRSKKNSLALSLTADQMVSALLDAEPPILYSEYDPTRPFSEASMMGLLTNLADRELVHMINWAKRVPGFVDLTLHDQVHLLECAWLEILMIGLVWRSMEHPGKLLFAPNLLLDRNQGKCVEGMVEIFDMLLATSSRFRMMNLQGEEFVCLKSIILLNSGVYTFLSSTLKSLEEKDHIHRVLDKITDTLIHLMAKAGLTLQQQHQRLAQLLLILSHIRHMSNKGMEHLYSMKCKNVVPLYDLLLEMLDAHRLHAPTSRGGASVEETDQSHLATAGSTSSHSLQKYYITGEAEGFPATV
Description: (B) Western blot analysis of ERα levels in normal medium-cultured MCF-7 cells at different times with 6 μM ATA treatment.
Thus, immunostaining was used to exam the protein level of ERα in MCF-7 cells after ATA treatment. It was observed that ERα was mainly localized in the nucleus (FIG. 6A) in the control cells, which had been cultured in the charcoal-stripped medium for 4 days.
Subsequently, Western blot analysis was used to confirm this prediction. […] To ensure that ATA produced a similar effect in the MCF-7 cells under a physiological condition, Western blotting was used to determine the protein level of ERα in normal medium-cultured MCF-7 cells with or without ATA treatment.

[10] = biological target: T2, ERα in BT474 cells (Homo sapiens, UniProt P03372); test: ERα protein level by Western blotting; assay type: cell-based; conditions: 6 μM ATA or 1 μM fulvestrant
T2 construct: endogenous in cells; host or cells: BT474 human breast cancer cells
Description: Cells were treated with 6 μM ATA or 1 μM fulvestrant for indicated times and analyzed by Western blotting.

[11] = test system: GREB1 mRNA in MCF-7 cells; test: Real-time PCR of GREB1 mRNA level; conditions: for GREB1 mRNA level, fold of the control: 100 pM estrogen plus 6 μM ATA, charcoal-stripped medium
Description: In order to do so, the mRNA level of a non-ER regulated gene GAPDH was measured and used as a reference. MCF-7 cells cultured in the charcoal-stripped medium were used as a control.

[12] = test system: MDA-MB-231; test: Growth inhibition at 72 h by MTT assay
[13] = test system: BT474; test: Growth inhibition at 72 h by MTT assay
[14] = 6 μM ATA, 3 h, charcoal-stripped medium, immunostaining

CC(=O)Oc1c(OC(C)=O)c2c(C)coc2c2ccc3c(c12)CCCC3(C)C [ATA, 1,6,6-trimethyl-8,9-dihydro-10,11-diacetoxyl-7H-naphtho[1,2-g][1]benzofuran]
IC50 [1]: 290 nM
CC50 ([1]; kill 50% of the cells): 5100 ± 1920 nM
CC50 [2]: 2740 ± 510 nM
IC50 [2]: 550 ± 150 nM
CC50 [3]: 10900 ± 1450 nM
IC50 [3]: 1390 ± 130 nM
CC50 [4]: 12300 ± 680 nM
IC50 [4]: 1960 ± 490 nM
IC50 ([5]; Homo sapiens): 1400 ± 200 nM
IC50 ratio of tamoxifen/ATA [5]: 6.7
IC50 ([6]; Homo sapiens, MCF7, MCF-7/HER2 cells, 72 h): 1000 ± 230 nM
sensitivity of MCF-7/HER2 cells compared with MCF-7 cells ([6]; paclitaxel 1×10^−3 μM to 10 μM, ATA 0.78 μM to 6.25 μM): higher sensitivity to ATA
average body weight versus control mice [7]: did not significantly decrease
tumour growth [7]: significant inhibition on tumour growth
time of maximum ROS level after ATA addition [8]: 2 h
ERα protein level ([9]; 6 μM ATA, 24 and 48 h, normal medium, Western blot): significantly decreased
ERα fluorescence intensity in the cytosol [9, 14]: remained unchanged
level of ERα in the nucleus [9, 14]: greatly reduced
total protein level of ERα ([9]; 4 h, charcoal-stripped medium, Western blot): slightly reduced
total protein level of ERα ([9]; after 8 h, charcoal-stripped medium, Western blot): significantly reduced
level of ERα [10]: reduced the level of ERα and HER2
GREB1 mRNA level, fold of the control ([11]; 4 h): 6.4 fold
GREB1 mRNA level, fold of the control ([11]; 12 h): 7.9 fold
GREB1 level of the control ([11]; 100 pM estrogen plus 6 μM compound, 24 h, normal medium): about 50%
IC50 ([12]; Homo sapiens, MDA-MB-231, 72 h): 7980 ± 180 nM
inhibition at 3.13 µM ([12]; Homo sapiens, MDA-MB-231, 72 h, read-out: growth inhibition rate): 32.3%
IC50 value at 72 h lower in ER-positive than ER-negative cells ([12]; MCF-7 and T47D versus MDA-MB-231): 5.4-5.7 fold
IC50 ratio of tamoxifen/ATA ([12]; MDA-MB-231 (ER−), 72 h): 2.7
Ratio of ER−/ER+ 231/MCF-7 ([12]; ratio of IC50 at 72 h, MDA-MB-231 over MCF-7): 5.4
Ratio of ER−/ER+ 231/T47D ([12]; ratio of IC50 at 72 h, MDA-MB-231 over T47D): 5.7
IC50 ratio of tamoxifen/ATA ([13]; BT474 (ER+/HER2+), 72 h): 6.2
IC50 ([13]; Homo sapiens, BT-474, 72 h): 1000 nM
inhibition at 3.13 µM ([13]; Homo sapiens, BT-474, 72 h, read-out: growth inhibition rate): 146%
